Assay results taken from patent publication US10004701B2, “Methods and compositions for treating infection” (UNIVERSITY OF ROCHESTER, priority 2012, dated 2018).
Where a name gives a salt, the structure may show the parent alone. Read-outs that look alike come from different tables or passages of the source.

How the values were obtained:
Assay in all cases: AK assay 384-well format, Prestwick library screening
[1] = system: E. faecium; assay type: cell-based, Enterococcus faecium; conditions: 50 μM final drug concentration; for fold induction at 50 µM: Enterococcus faecium, 3 h
[2] = system: E. cloacae; assay type: cell-based, Enterobacter cloacae; conditions: 50 μM final drug concentration; for fold induction at 50 µM: Enterobacter cloacae, 3 h
[3] = system: S. aureus strain USA300-0114; assay type: cell-based, Staphylococcus aureus; conditions: 50 μM final drug concentration; for fold induction at 50 µM: Staphylococcus aureus, USA300, 3 h
[4] = system: P. aeruginosa; assay type: cell-based, Pseudomonas aeruginosa; conditions: 50 μM final drug concentration; for fold induction at 50 µM: Pseudomonas aeruginosa, 3 h
[5] = system: K. pneumoniae; assay type: cell-based, Klebsiella pneumoniae; conditions: 50 μM final drug concentration; for fold induction at 50 µM: Klebsiella pneumoniae, 3 h
[6] = system: E. coli; assay type: cell-based, Escherichia coli; conditions: 50 μM final drug concentration; for fold induction at 50 µM: Escherichia coli, 3 h
[7] = system: A. baumannii strain 98-37-09; assay type: cell-based, Acinetobacter baumannii; conditions: 50 μM final drug concentration; for fold induction at 50 µM: Acinetobacter baumannii, 983709, 3 h
[8] = planktonic, cutoff for positive 3-fold increase, read-out: AK-based Prestwick Library Screening Results, E. faecium (fold increase in extracellular AK activity)
[9] = planktonic, cutoff for positive 3-fold increase, read-out: AK-based Prestwick Library Screening Results, E. cloacae (fold increase in extracellular AK activity)
[10] = planktonic, cutoff for positive 3-fold increase, read-out: AK-based Prestwick Library Screening Results, S. aureus (fold increase in extracellular AK activity)
[11] = planktonic, cutoff for positive 3-fold increase, read-out: AK-based Prestwick Library Screening Results, P. aeruginosa (fold increase in extracellular AK activity)
[12] = planktonic, cutoff for positive 3-fold increase, read-out: AK-based Prestwick Library Screening Results, K. pneumoniae (fold increase in extracellular AK activity)
[13] = planktonic, cutoff for positive 3-fold increase, read-out: AK-based Prestwick Library Screening Results, A. baumannii (fold increase in extracellular AK activity)
[14] = 384-well format, cutoff for positive-scoring molecules 3-fold increase, read-out: AK-based Prestwick Library Screening Results, E. faecium (increase in extracellular AK activity)
[15] = 384-well format, cutoff for positive-scoring molecules 3-fold increase, read-out: AK-based Prestwick Library Screening Results, E. cloacae (increase in extracellular AK activity)
[16] = 384-well format, cutoff for positive-scoring molecules 3-fold increase, read-out: AK-based Prestwick Library Screening Results, S. aureus (increase in extracellular AK activity)
[17] = 384-well format, cutoff for positive-scoring molecules 3-fold increase, read-out: AK-based Prestwick Library Screening Results, P. aeruginosa (increase in extracellular AK activity)
[18] = 384-well format, cutoff for positive-scoring molecules 3-fold increase, read-out: AK-based Prestwick Library Screening Results, K. pneumoniae (increase in extracellular AK activity)
[19] = 384-well format, cutoff for positive-scoring molecules 3-fold increase, read-out: AK-based Prestwick Library Screening Results, E. coli (increase in extracellular AK activity)
[20] = 384-well format, cutoff for positive-scoring molecules 3-fold increase, read-out: AK-based Prestwick Library Screening Results, A. baumannii (increase in extracellular AK activity)
[21] = cutoff for positive-scoring molecules 3-fold increase
[22] = 384-well format, […], read-out: AK-based Prestwick Library Screening Results, E. faecium (increase in extracellular AK activity)
[23] = 384-well format, […], read-out: AK-based Prestwick Library Screening Results, E. cloacae (increase in extracellular AK activity)
[24] = 384-well format, […], read-out: AK-based Prestwick Library Screening Results, S. aureus (increase in extracellular AK activity)
[25] = 384-well format, […], read-out: AK-based Prestwick Library Screening Results, P. aeruginosa (increase in extracellular AK activity)
[26] = 384-well format, […], read-out: AK-based Prestwick Library Screening Results, K. pneumoniae (increase in extracellular AK activity)
[27] = 384-well format, […], read-out: AK-based Prestwick Library Screening Results, E. coli (increase in extracellular AK activity)
[28] = 384-well format, […], read-out: AK-based Prestwick Library Screening Results, A. baumannii (increase in extracellular AK activity)

CN1CCC(OC(c2ccccc2)c2ccccc2)CC1 [Diphenylpyraline hydrochloride]
fold induction at 50 µM ([1]; cutoff for positive-scoring molecules 3-fold increase, read-out: AK-based Prestwick Library Screening Results, E. faecium (fold increase in extracellular AK activity)): 1.1 | fold induction at 50 µM ([2]; cutoff for positive-scoring molecules 3-fold increase, read-out: AK-based Prestwick Library Screening Results, E. cloacae (fold increase in extracellular AK activity)): 1.4 | fold induction at 50 µM ([3]; cutoff for positive-scoring molecules 3-fold increase, read-out: AK-based Prestwick Library Screening Results, S. aureus (fold increase in extracellular AK activity)): 1.2 | fold induction at 50 µM ([4]; cutoff for positive-scoring molecules 3-fold increase, read-out: AK-based Prestwick Library Screening Results, P. aeruginosa (fold increase in extracellular AK activity)): 1.1 | fold induction at 50 µM ([5]; cutoff for positive-scoring molecules 3-fold increase, read-out: AK-based Prestwick Library Screening Results, K. pneumoniae (fold increase in extracellular AK activity)): 1 | fold induction at 50 µM ([6]; cutoff for positive-scoring molecules 3-fold increase, read-out: AK-based Prestwick Library Screening Results, E. coli (fold increase in extracellular AK activity)): 1.3 | fold induction at 50 µM ([7]; cutoff for positive-scoring molecules 3-fold increase, read-out: AK-based Prestwick Library Screening Results, A. baumannii (fold increase in extracellular AK activity)): 1.3

CNCC(O)c1ccc(OC(=O)C(C)(C)C)c(OC(=O)C(C)(C)C)c1 (stereo not shown) [Dipivefrin hydrochloride]
fold induction at 50 µM [1, 8]: 1 | fold induction at 50 µM [2, 9]: 1.6 | fold induction at 50 µM [3, 10]: 1.2 | fold induction at 50 µM [4, 11]: 1.3 | fold induction at 50 µM [5, 12]: 1.3 | fold induction at 50 µM ([6]; planktonic, […], read-out: AK-based Prestwick Library Screening Results, E. coli (fold increase in extracellular AK activity)): 1.4 | fold induction at 50 µM [7, 13]: 1.4

Cn1c(=O)c2c(ncn2CC(O)CO)n(C)c1=O (stereo not shown) [Diprophylline]
fold induction at 50 µM [1, 14]: 0.9 | fold induction at 50 µM [2, 15]: 1.1 | fold induction at 50 µM [3, 16]: 0.7 | fold induction at 50 µM [4, 17]: 0.7 | fold induction at 50 µM [5, 18]: 0.6 | fold induction at 50 µM [6, 19]: 1 | fold induction at 50 µM [7, 20]: 0.8

OCCN(CCO)c1nc(N2CCCCC2)c2nc(N(CCO)CCO)nc(N3CCCCC3)c2n1 [Dipyridamole]
fold induction at 50 µM ([1]; planktonic E. faecium, 384-well, cutoff for positive-scoring molecules 3-fold increase, read-out: AK-based Prestwick Library Screening Results: E. faecium (increase in extracellular AK activity)): 0.9 | fold induction at 50 µM ([2]; planktonic E. cloacae, 384-well, cutoff for positive-scoring molecules 3-fold increase, read-out: AK-based Prestwick Library Screening Results: E. cloacae (increase in extracellular AK activity)): 1.4 | fold induction at 50 µM ([3]; planktonic S. aureus, 384-well, cutoff for positive-scoring molecules 3-fold increase, read-out: AK-based Prestwick Library Screening Results: S. aureus (increase in extracellular AK activity)): 0.8 | fold induction at 50 µM ([4]; planktonic P. aeruginosa, 384-well, cutoff for positive-scoring molecules 3-fold increase, read-out: AK-based Prestwick Library Screening Results: P. aeruginosa (increase in extracellular AK activity)): 1.1 | fold induction at 50 µM ([5]; planktonic K. pneumoniae, 384-well, cutoff for positive-scoring molecules 3-fold increase, read-out: AK-based Prestwick Library Screening Results: K. pneumoniae (increase in extracellular AK activity)): 0.9 | fold induction at 50 µM ([6]; planktonic E. coli, 384-well, cutoff for positive-scoring molecules 3-fold increase, read-out: AK-based Prestwick Library Screening Results: E. coli (increase in extracellular AK activity)): 1.3 | fold induction at 50 µM ([7]; planktonic A. baumannii, 384-well, cutoff for positive-scoring molecules 3-fold increase, read-out: AK-based Prestwick Library Screening Results: A. baumannii (increase in extracellular AK activity)): 1.2

Cc1c(N(C)CS(=O)(=O)[O-])c(=O)n(-c2ccccc2)n1C.[Na+] [Dipyrone]
AK-based Prestwick Library Screening Results, E. faecium (fold increase in extracellular AK activity) [1, 21]: 1.0 | AK-based Prestwick Library Screening Results, E. cloacae (fold increase in extracellular AK activity) [2, 21]: 1.4 | AK-based Prestwick Library Screening Results, S. aureus (fold increase in extracellular AK activity) [3, 21]: 1.4 | AK-based Prestwick Library Screening Results, P. aeruginosa (fold increase in extracellular AK activity) [4, 21]: 1.1 | AK-based Prestwick Library Screening Results, K. pneumoniae (fold increase in extracellular AK activity) [5, 21]: 1.1 | AK-based Prestwick Library Screening Results, E. coli (fold increase in extracellular AK activity) [6, 21]: 1.1 | AK-based Prestwick Library Screening Results, A. baumannii (fold increase in extracellular AK activity) [7, 21]: 1.1

CC[C@H]1OC(=O)[C@H](C)[C@@H](O[C@H]2C[C@@](C)(OC)[C@@H](O)[C@H](C)O2)[C@H](C)[C@@H](O[C@@H]2O[C@H](C)C[C@H](N(C)C)[C@H]2O)[C@](C)(O)C[C@@H](C)[C@@H]2N[C@@H](COCCOC)O[C@H]([C@H]2C)[C@]1(C)O [Dirithromycin]
fold induction at 50 µM [1, 8]: 1.2 | fold induction at 50 µM [2, 9]: 1.5 | fold induction at 50 µM [3, 10]: 2.1 | fold induction at 50 µM [4, 11]: 0.9 | fold induction at 50 µM [5, 12]: 1.2 | fold induction at 50 µM ([6]; planktonic, cutoff for positive 3-fold increase, read-out: AK-based Prestwick Library Screening Results, E. coli (fold increase in extracellular AK activity)): 1.1 | fold induction at 50 µM [7, 13]: 1.8

CC(C)N(CCC(C(N)=O)(c1ccccc1)c1ccccn1)C(C)C (stereo not shown) [Disopyramide]
fold induction at 50 µM [1, 14]: 0.9 | fold induction at 50 µM [2, 15]: 1 | fold induction at 50 µM [3, 16]: 2.7 | fold induction at 50 µM [4, 17]: 0.9 | fold induction at 50 µM [5, 18]: 0.6 | fold induction at 50 µM [6, 19]: 0.9 | fold induction at 50 µM [7, 20]: 0.9

CCN(CC)C(=S)SSC(=S)N(CC)CC [Disulfiram]
fold induction at 50 µM [1, 22]: 1 | fold induction at 50 µM [2, 23]: 0.7 | fold induction at 50 µM [3, 24]: 1.1 | fold induction at 50 µM [4, 25]: 0.6 | fold induction at 50 µM [5, 26]: 0.6 | fold induction at 50 µM [6, 27]: 0.9 | fold induction at 50 µM [7, 28]: 1

C[C@]12N[C@H](Cc3ccccc31)c1ccccc12 [Dizocilpine maleate]
fold induction at 50 µM [1, 22]: 0.9 | fold induction at 50 µM [2, 23]: 1 | fold induction at 50 µM [3, 24]: 0.7 | fold induction at 50 µM [4, 25]: 0.9 | fold induction at 50 µM [5, 26]: 0.7 | fold induction at 50 µM [6, 27]: 0.9 | fold induction at 50 µM [7, 28]: 0.8

CC(CCc1ccc(O)cc1)NCCc1ccc(O)c(O)c1 (stereo not shown) [Dobutamine hydrochloride]
fold induction at 50 µM ([1]; planktonic E. faecium, cutoff for positive-scoring molecules 3-fold increase, read-out: AK-based Prestwick Library Screening Results, E. faecium (increase in extracellular AK activity)): 0.8 | fold induction at 50 µM ([2]; planktonic E. cloacae, cutoff for positive-scoring molecules 3-fold increase, read-out: AK-based Prestwick Library Screening Results, E. cloacae (increase in extracellular AK activity)): 1.1 | fold induction at 50 µM ([3]; planktonic S. aureus, cutoff for positive-scoring molecules 3-fold increase, read-out: AK-based Prestwick Library Screening Results, S. aureus (increase in extracellular AK activity)): 0.1 | fold induction at 50 µM ([4]; planktonic P. aeruginosa, cutoff for positive-scoring molecules 3-fold increase, read-out: AK-based Prestwick Library Screening Results, P. aeruginosa (increase in extracellular AK activity)): 0.6 | fold induction at 50 µM ([5]; planktonic K. pneumoniae, cutoff for positive-scoring molecules 3-fold increase, read-out: AK-based Prestwick Library Screening Results, K. pneumoniae (increase in extracellular AK activity)): 0.8 | fold induction at 50 µM ([6]; planktonic E. coli, cutoff for positive-scoring molecules 3-fold increase, read-out: AK-based Prestwick Library Screening Results, E. coli (increase in extracellular AK activity)): 0.8 | fold induction at 50 µM ([7]; planktonic A. baumannii, cutoff for positive-scoring molecules 3-fold increase, read-out: AK-based Prestwick Library Screening Results, A. baumannii (increase in extracellular AK activity)): 0.7
